# Test results reported in patent US10953115B2, “Production of sterile active pharmaceutical ingredients” (Icrom S.R.L., priority 2012, dated 2021).
# Legend:
# [1] = Appearance and related substances (USP Brinzolamide monograph) after gamma-ray sterilisation; type: physicochemical
# Procedure: All the analysis were performed according to USP Brinzolamide monograph, sterility and bioburden test were performed according to Eur. Ph. and USP.
# Two related substances (impurities) are described in the USP monograph: Impurity A and Impurity B.
# The material was tested according to USP, details about appearance of the powder, related substances and sterility were given in Table 1.
# The material was tested according to USP, details about appearance of the powder, related substances and sterility were given in Table 2.
# The material was tested according to USP, details about appearance of the powder, related substances and sterility were given in Table 3.
# The material was tested according to USP, details about appearance of the powder, related substances and sterility were given in Table 4.
# The material was tested according to USP, details about appearance of the powder, related substances and sterility were given in Table 5.
# [2] = stated as reason why sterile filtration is not achievable; cited from earlier work
# [3] = micronised, LDPE liner in double barrier foil (no vacuum), 25 KGy, RT
# [4] = micronised, packed under vacuum, 25 KGy, RT
# [5] = micronised, under vacuum and helium, 25 KGy, −78° C.
# [6] = micronised, under vacuum and nitrogen, 25 KGy, −78° C.
# [7] = not-micronized, LDPE liner in barrier foil, 10 KGy, RT
# [8] = not-micronized, LDPE liner in barrier foil, 15 KGy, RT
# [9] = not-micronized, LDPE liner in barrier foil, 20 KGy, RT
# [10] = not-micronized, LDPE liner in barrier foil, 25 KGy, RT
compound,measurement,setting,value
CCN[C@H]1CN(CCCOC)S(=O)(=O)c2sc(S(N)(=O)=O)cc21 [Brinzolamide],Compliance with USP specifications,"[1]; Example 1: not-micronized, 10, 15, 20 and 25 KGy, RT",complies with the USP specifications apart the appearance of the powder in the 20 and 25 KGy trials
same,Compliance with USP specification,"[1]; Example 2: micronised, no vacuum, 25 KGy, RT",does not complies with USP specification
same,Compliance with USP specification,"[1]; Example 3: micronised, under vacuum, 25 KGy, RT",complies with USP specification
same,Compliance with USP specification,"[1]; Example 4: micronised, under vacuum and nitrogen, 25 KGy, −78° C.",complies with USP specification
same,Compliance with USP specification,"[1]; Example 5: micronised, under vacuum and helium, 25 KGy, −78° C.",complies with USP specification
same,Appearance,[1]; [3],Almost White powder
same,Impurity A,[1]; [3],Not detected
same,Impurity B,[1]; [3],0.29%
same,Impurity C,[1]; [3],<0.05%
same,Impurity D,[1]; [3],0.62%
same,Total Impurities,[1]; [3],1.4%
same,Appearance,[1]; [4],White powder
same,Impurity A,[1]; [4],Not detected
same,Impurity B,[1]; [4],0.09%
same,Impurity C,[1]; [4],<0.05%
same,Impurity D,[1]; [4],0.30%
same,Total Impurities,[1]; [4],0.6%
same,Appearance,[1]; [5],White powder
same,Impurity A,[1]; [5],Not detected
same,Impurity B,[1]; [5],0.06%
same,Impurity C,[1]; [5],<0.05%
same,Impurity D,[1]; [5],0.11%
same,Total Impurities,[1]; [5],0.2%
same,Appearance,[1]; [6],White powder
same,Impurity A,[1]; [6],Not detected
same,Impurity B,[1]; [6],0.08%
same,Impurity C,[1]; [6],<0.05%
same,Impurity D,[1]; [6],0.16%
same,Total Impurities,[1]; [6],0.3%
same,Appearance,[1]; [7],White powder
same,Impurity A,[1]; [7],Not detected
same,Impurity B,[1]; [7],0.06%
same,Impurity C,[1]; [7],<0.05%
same,Impurity D,[1]; [7],0.11%
same,Total Impurities,[1]; [7],0.2%
same,Appearance,[1]; [8],White powder
same,Impurity A,[1]; [8],Not detected
same,Impurity B,[1]; [8],0.07%
same,Impurity C,[1]; [8],<0.05%
same,Impurity D,[1]; [8],0.14%
same,Total Impurities,[1]; [8],0.2%
same,Appearance,[1]; [9],Greenish powder
same,Impurity A,[1]; [9],Not detected
same,Impurity B,[1]; [9],0.10%
same,Impurity C,[1]; [9],<0.05%
same,Impurity D,[1]; [9],0.19%
same,Total Impurities,[1]; [9],0.3%
same,Appearance,[1]; [10],Greenish powder
same,Impurity A,[1]; [10],Not detected
same,Impurity B,[1]; [10],0.10%
same,Impurity C,[1]; [10],<0.05%
same,Impurity D,[1]; [10],0.21%
same,Total Impurities,[1]; [10],0.4%
same,Solubility,[2],poor solubility
